Assay results reported in US5667764A, “Compounds, compositions and methods for binding bio-affecting substances to surface membranes of bio-particles” (Zynaxis, Inc., priority 1992, dated 1997).
Where two headings read alike, the source gives them in different places. Blank lines part the entries; values can stand above or below the compound they belong to.

How the values were obtained:
myointimal thickening = details: animal models; cited from earlier work
[1] = system: lumenal surface of the femoral arteries; test: Retention at intravascular site; assay type: in vivo, rabbit
Method: To determine whether the compounds of the invention will remain at an intravascular site once applied experiments were performed wherein ^125 I-substituted lipophilic cyanine, prepared as described in Example 2 (compound 12, Reaction Scheme 2) was applied to the lumenal surface of the femoral arteries of anesthetized rabbits. The femoral artery was surgically isolated and a small, proximal side branch was cannulated with a short length of PE10 tubing. A 1 cm arterial segment surrounding the side branch was occluded and 20-50μl of a solution containing ^125 I-substituted compound 12 was administered through the cannula to the occluded section and allowed to remain for 5-10 min. The ^125 I-substituted compound was then withdrawn along with the cannula, the side branch was permanently tied, the femoral artery occlusion removed to allow the return of blood flow, and the femoral incision was closed. ^125 I-radioactivity was then monitored at selected times over the next 3 weeks with a Ludium Model 2200 Scaler Ratemeter and a Model 44-17 2 inch crystal with windows optimized for the detection of ^125 I.

[2] = Source text: The HPLC system used comprised a Waters Model 600E solvent delivery system with W600E gradient controller, U6K injector and Model 990 photodiode array detector. Chromatography conditions were as follows: Column: Waters Nova-Pak (phenyl, 4 μm, 3.9 mm×15 cm); Mobile phase: Solvent A=Water:Methanol:Acetonitrile:PIC A reagent (Waters) (395:25:80:4), Solvent B=Water:Methanol: Acetonitrile:PIC A reagent (225:25:250:4), Solvent C=Methanol:Water:PIC A reagent (490:15:4). Gradient conditions: 100% (A) to 60%:40% (A:B) over 20 minutes then to 100% (C) over 10 minutes followed by 100% (C) for 40 minutes. Flow rate: 2 mL/min. Detection: photodiode array from 240-575 nm.
The rate of acid hydrolysis of hydrazone conjugate (19) to produce 7-N-(5-oxopentanoyl) deacetyl colchicine was studied by HPLC at 3 different pH's.
Buffer solutions were prepared according to the procedures described by Gomori, "Methods in Enzymology", 16:138 (1955). HPLC conditions and retention times were the same as described above.
Compound solutions to be studied were prepared by adding 50 μl of hydrazone conjugate solution (1 mg/ml of methanol) to a screw capped vial (1 ml) containing citrate phosphate buffer (200 μl) of the desired pH. The vials were kept closed and the solutions were analysed by HPLC (350 nm detection) for conjugate (19) remaining and 7-N-(5-oxopentanoyl) deacetyl colchicine produced at 24 h and 48 h. Each hplc injection was […].

A10 cells = test: Antiproliferative activity on A10 cells after one 10 minute application; assay type: cell-based, rat; details: for Cell count: 10 μM, 10 minute application
Method: To determine the antiproliferative action of the compounds of invention, in vitro studies were performed using A10 cells, a clonal cell line originally derived from the thoracic aorta of embryonic rats, that proliferate as myoblasts and develop into cells which phenotypically resemble smooth muscle cells (B. Kimes and B. Brandt, Exptl. Cell Res. 98:349 (1976). Typically, twelve-well plates were seeded with 2500-10,000 A10 cells/cm^2 in Dulbecco's Modified Eagles Medium (DMEM) with 10% fetal calf serum (FCS) and allowed to adhere and stabilize for 24 hours at 37° C. Test substances were then prepared in the required concentrations in appropriate cell binding media and, after aspirating the plating medium, applied to the individual wells at 37° C. for a period of only 10 minutes. The treatments were then aspirated, the wells washed 4 times with non-treatment containing medium and then placed in non-treatment containing DMEM with 10% FCS for the duration of the study. At various times after treatment application, triplicate wells were aspirated, the aspirate saved, and the wells treated with 0.25 ml of 0.25% trypsin to release the adherent cells. The enzymatic action of trypsin on the cells was stopped by addition of excess protein (1.75 ml DMEM+10% FCS), the aspirate returned to the wells, and an aliquot of the resultant cell suspension counted in a Coulter Counter (Model ZM with Sampling Stand II). Cell count was normalized to cells per square centimeter of growing area (surface area of well bottom).

[3] = system: rabbit red blood cell ghosts; test: Binding of anticoagulant conjugate to rabbit red blood cell ghosts; details: 24 h, 37° C.
Method: Ghosts were then washed extensively and placed in phosphate buffered saline with lmM EDTA and 5% BSA for 24 h at 37° C. Samples were agitated and a 50 μl aliquot removed from each sample and placed in 200 μl of Triton X-100® in a microtiter plate well (representingtotal suspension fluorescence). The original samples were centrifuged for 10 minutes and a 50 μl sample of the ghost supernatant removed and placed in 200 μl of Triton X-100® (representing free fluorescence in the aqueous phase only). The fluorescence of all samples was determined on a fluorometric microtiter plate reader. Bound fluorescence was determined by subtraction of free from total after correction for background fluorescence from unstained ghosts; the percent free and bound fluorescence was determined by dividing the bound and free fluorescence by total fluorescence, respectively and multiplying by 100.

[4] = system: red blood cell ghosts (plasma membrane); test: Membrane retention coefficient (MRC) in red blood cell ghosts; assay type: binding; details: 24 hr; Table II
Method: Determination of Membrane Retention Coefficient
The membrane retention coefficient (MRC) provides information regarding how well a given compound is retained in the plasma membrane of a cell and is determined as described below.
Generation of red blood cell ghosts for use as a model membrane is achieved by centrifuging whole blood at 300×g for 15 minutes, removal of the plasma and resuspension of the cell pellet in 0.83% (w/v) ammonium chloride. The ghosts are pelleted from the ammonium chloride by centrifuging at 10,000×g for 10 minutes. This ammonium chloride washing procedure is repeated a minimum of five times to insure that complete release of hemoglobin from the cells has occured. The ghosts are labeled with the compound in question at a concentration allowing for detection of the labeled ghosts by instrumental analysis or fluorescent microscopic methods, and at a concentration similar to those that would be used to label cells for a specific application as described above. For the determinations hereinbelow stock solutions of the compounds in question were prepared in ethanol at a molar concentration of 2×10^-3, and working dilutions of the compounds were prepared in iso-osmotic sucrose (52 g/500 ml distilled water). After incubation of the ghosts at an approximate concentration of 1×10^9 ghosts/ml in the working dilutions of the compounds for 10 minutes, the samples were centrifuged at 10,000×g to pellet the ghosts and the staining solution was aspirated from the samples. The labeled ghosts were resuspended in 1 ml of phosphate buffered saline solution containing 10% fetal bovine serum (PBS-FBS). Triplicate 20 ul aliquots were removed from each sample for the determination of the amount of total compound present. The samples were centrifuged as described above and triplicate 20 ul aliquots were removed from the supernatant for quantitative determination of amount of unbound compound present.
After sampling, the supernatant was aspirated and the red cell ghost pellet was resuspended in 1.0 ml of the PBS-FBS, which was once again sampled as described above. This procedure was repeated at least six times, allowing for detection of rapidly released compounds and was monitored after times equal to or greater than 24 hours to allow for the detection of more slowly released compounds. For the determination of the amount of compound present in each sample, the 20 ul aliquots were extracted into 3.0 ml of n-butanol by shaking. The samples were centrifuged at 3000×g to remove membrane debris and the butanol fractions were assayed for compound concentration. Fluorescent compounds are assayed in this manner using peak excitation and emission wave lengths for the particular compounds being assayed to determine the fluorescence units for each sample.
The determination of the amount of compound present in each sample as described above allows for the calculation of the MRC for each washing or fixed time point. The value is obtained by the following formula: […]
wherein CT represents the amount of compound present (in units determined by the method used to assay the compound) in the total sample and CS represents the amount of compound present in the supernatant sample for that particular time point. The comparison of the MRC values defines criteria for identification of the compounds of this invention, these criteria being: 1) the MRC values determined for each washing steps should have a value of at least about 90 and 2) the percent difference between MRC values over at least a 24 hour time period should be less than about 10%. [drawing 14]
The data provided in Table I below are the results from one experiment and serve as an example of the MRC determination. […]

membrane ghosts = test: Membrane binding stability (MBS) assay in membrane ghosts with 5% albumin; details: 24 hours; for MBS (% of max.): Table II
Source text: Determination of Membrane Binding Stability
For example, very stable binding to membranes might be required for applications such as delivery of therapeutic radionuclides to tumor sites, as loss of compound could lead to the radionuclide producing its toxic effect at non-tumor sites. On the other hand, more rapid loss of compound from biomembranes may be desirable for application involving controlled delivery rates of therapeutic agents. Accordingly, there is described hereinbelow an assay for determining MBS under conditions approximating those found in vivo.
In carrying out this assay, approximately physiological concentrations of serum albumin (5%) are used. […] To better approximate the effects of large fluid volumes to which labelled cells are exposed in vivo, the assay for MBS is carried out by suspending a decreasing number of labeled membrane ghosts in a fixed volume of albumin-containing saline. At 24 hours, the total amount of label present is determined by sampling the well mixed suspension; subsequently, the membrane ghosts are pelleted by centrifugation and the amount of label released into the supernatant is determined and expressed as a percent of total label. Percent retention is plotted against number of ghosts per ml. of suspension, and MBS is determined as the area under the curve between 5×10^7 ghosts/ml. and 4×10^8 ghosts/ml.

rabbit erythrocytes = details: iv
Source text: *Half life for loss of dye from rabbit erythrocytes after labeling and

[5] = labeling 10 μM (compound 7), 20 μM (conjugate, FITC-heparin)

- Applied material (radioactivity) remaining within the artery ([1]; after first 24 hour, mean±sem, n=4): 34.0±10.9%
- Elimination half-life after the first 24 hours ([1]; after first 24 hours): 365.8 ± 69.4 h
- Initial elimination half-life ([1]; first 24 hour): 18.5 ± 6.96 h
- Time detectable after application ([1]; rabbit, in vivo): at least 3 weeks
Compound: CCCCCCCCCCCCCCCCCCCCCCN1C(=CC=CC2=[N+](CCCCCCCCCCCCCC)c3ccccc3C2(C)C)C(C)(C)c2cc([125I])ccc21 [Compound 12, N-docosanyl-N'-tetradecyl-5-iodo-3,3,3',3'-tetramethylindocarbocyanine chloride]

- % Bound ([3]; 5% BSA): 94.96%
- % Free ([3]; 5% BSA): 5.04%
Compound: CCCCCCCCCCCCCCCCCCCCCC[N+]1=C(C=CC=C2N(CCCCCCCCCCCCCC)c3ccc(CNC=O)cc3C2(C)C)C(C)(C)c2ccccc21 [Compound 7, 1'-docosanyl-5(N-formylaminomethyl)-1-tetradecyl-3,3,3',3'tetramethylindocarbocyanine iodide]
- Fluorescence intensity, supernatant [3, 5]: 73.69
- Fluorescence intensity, suspension [3, 5]: 1439.00

- MBS (% of max.) (membrane ghosts): 48 ± 3.1 % of max.
- In vivo membrane half-life (rabbit erythrocytes): 33.6 h
Compound: CCCCCCCCCCCCCCCCCCCCCC[N+]1=C(C=CC=C2N(CCCCCCCCCCCC)c3ccccc3C2(C)C)C(C)(C)c2ccccc21 [P]
- MRC# (at 24 hr.) [4]: 65 ± 2.0

Second part, the compound before the results:

Compound: CC(C)[C@@H]1NC(=O)[C@H](CCCCN)NC(=O)[C@@H](Cc2c[nH]c3ccccc23)NC(=O)[C@H](Cc2ccc(O)cc2)NC(=O)[C@@H](NC(=O)[C@H](N)Cc2ccc3ccccc3c2)CSSC[C@@H](C(=O)N[C@H](C(N)=O)[C@@H](C)O)NC1=O [Angiopeptin]
- Myointimal thickening (myointimal thickening): reduction of myointimal thickening

Compound: interferon-gamma
- Myointimal thickening (myointimal thickening): reduction of myointimal thickening

Compound: CCCCCCCCCCCCCCCCCCCCCCN1C(=CC=CC2=[N+](CCCCCCCCCCCCCC)c3ccc(CNC(=O)CCCC(=O)NN=CCCCC(=O)N[C@H]4CCc5cc(OC)c(OC)c(OC)c5-c5ccc(OC)c(=O)cc54)cc3C2(C)C)C(C)(C)c2ccccc21 [Compound 19, 7-N(5-oxopentanoyl) deacetyl colchicine Lipophilic Cyanine Hydrazone Conjugate]
- Free colchicine hydrolysis product detected by HPLC ([2]; pH 4.21, 5.74, 7.35): the expected aidehyde, compound 18
- Cleavage of (19) to produce (18) ([2]; pH 4.21, 24 hours): 78%
- Cleavage of (19) to produce (18) ([2]; pH 4.21, 48 hours): 100%
- Cleavage of (19) to produce (18) ([2]; pH 5.74, 24 hours): 45%
- Cleavage of (19) to produce (18) ([2]; pH 5.74, 48 hours): 100%
- Cleavage of (19) to produce (18) ([2]; pH 7.35, 24 hours): 36%
- Cleavage of (19) to produce (18) ([2]; pH 7.35, 48 hours): 77%
- Cell count (A10 cells; day 0): 2291.12 cells per square centimeter
- Cell count (A10 cells; day 1): 2625.33 cells per square centimeter
- Cell count (A10 cells; day 2): 2369.45 cells per square centimeter
- Cell count (A10 cells; day 3): 2206.27 cells per square centimeter
- Cell count (A10 cells; day 6): 8800.26 cells per square centimeter
- Cell count (A10 cells; day 7): 10895.65 cells per square centimeter
- Cell-associated fluorescence (A10 cells; flow cytometry): significant cell-associated fluorescence

Compound: CCCCCCCCCCCCCC[N+]1=C(C=CC=C2N(CCC)c3ccccc3C2(C)C)C(C)(C)c2ccccc21 [Q]
- MRC# (at 24 hr.) [4]: 85 ± 0.6
- MBS (% of max.) (membrane ghosts): 41 ± 5.0 % of max.
- MBS (membrane ghosts; Table III): 42 ± 5.7%
- In vivo membrane half-life (rabbit erythrocytes): 240 ± 17 h

Compound: CCCCCCCCCCCC[N+]1=C(C=CC=C2N(CCCCCCCCCC)c3ccccc3C2(C)C)C(C)(C)c2ccccc21 [Compound 0]
- MRC# (at 24 hr.) [4]: 30 ± 4.7
- MBS (% of max.) (membrane ghosts): 19 ± 3.5 % of max.
- In vivo membrane half-life (rabbit erythrocytes): < 24 h

Compound: CN(C/C=C/C#CC(C)(C)C)Cc1cccc2ccccc12 [Terbinafine]
- Myointimal thickening (myointimal thickening): reduction of myointimal thickening
